Assay results reported in patent US6355630B1, “Estra-1,3,5(10)-triene-7α-thioethers” (priority 1997, dated 2002).

Columns and labels:
rat uterus = assay: Rat uterotrophic/antiuterotrophic test procedure; assay type: in vivo; conditions: daily ip, 4-day immature rat
Experimental: Rat Uterotrophic/Antiuterotrophic Test Procedure
The estrogenic and antiestrogenic properties of the compounds were determined in a 4-day immature rat uterotrophic assay (as described previously by L. J. Black and R. L. Goode, Life Sciences, 26, 1453 (1980)). Immature Sprague-Dawley rats (female, 18 days old) were tested in groups of six. […] On day 4 the animals were sacrificed by CO2 asphyxiation and their uteri were removed and stripped of excess lipid, any fluid removed and the wet weight determined. A small section of one horn was submitted for histology and the remainder used to isolate total RNA in order to evaluate complement component 3 gene expression.
Representative compounds of this invention were evaluated in the rat uterotrophic/antiuterotrophic assay to determine their in vivo effects on the rat uterus.

human estrogen receptor = biological target: T1, human estrogen receptor (Homo sapiens, UniProt P03372); assay: In vitro estrogen receptor binding test procedure ([3H]-17β-estradiol competition); conditions: for IC50: read-out: Receptor IC50
T1 construct: expressed in transfected cells; host or cells: Chinese Hamster ovary (CHO) cells; ribosome-free cytosol
T1 sequence (P03372 1-595): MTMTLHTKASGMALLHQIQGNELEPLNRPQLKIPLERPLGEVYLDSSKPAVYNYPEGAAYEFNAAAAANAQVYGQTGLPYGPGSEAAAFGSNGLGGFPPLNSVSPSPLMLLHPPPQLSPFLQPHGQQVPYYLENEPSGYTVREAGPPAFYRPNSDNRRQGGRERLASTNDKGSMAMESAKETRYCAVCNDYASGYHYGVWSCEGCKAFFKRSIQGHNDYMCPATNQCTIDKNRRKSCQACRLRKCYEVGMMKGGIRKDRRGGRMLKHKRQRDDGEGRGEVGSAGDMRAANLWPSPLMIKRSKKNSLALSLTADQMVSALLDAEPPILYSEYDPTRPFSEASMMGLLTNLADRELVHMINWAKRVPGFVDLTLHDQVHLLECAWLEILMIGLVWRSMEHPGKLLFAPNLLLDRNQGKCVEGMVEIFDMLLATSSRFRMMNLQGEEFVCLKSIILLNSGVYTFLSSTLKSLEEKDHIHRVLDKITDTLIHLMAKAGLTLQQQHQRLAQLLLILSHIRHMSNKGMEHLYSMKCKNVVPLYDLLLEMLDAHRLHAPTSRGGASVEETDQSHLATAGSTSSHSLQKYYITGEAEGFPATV
Experimental: In vitro Estrogen Receptor Binding Test Procedure
Chinese Hamster ovary (CHO) cells overexpressing the estrogen receptor were grown in […] dishes in DMEM+10% dextran coated charcoal, stripped fetal bovine serum. The plates were washed twice with PBS and once with 10 mM Tris-HCl, pH 7.4, 1 mM EDTA. Cells were harvested by scraping the surface and then the cell suspension was placed on ice. Cells were disrupted with a hand-held motorized tissue grinder using two, 10-second bursts. The crude preparation was centrifuged at 12,000 g for 20 minutes followed by a 60 minute spin at 100,000 G to produce a ribosome free cytosol. The cytosol was then frozen and stored at −80° C. Protein concentration of the cytosol was estimated using the BCA assay with reference standard protein.
Binding Test Procedure Conditions
100 uG/100 uL of the receptor preparation was aliquoted per well. […] The plate was incubated at room temperature for 2.5 h. At the end of this incubation period 150 uL of ice-cold dextran coated charcoal (5% activated charcoal coated with 0.05% 69K dextran) was added to each well and the plate was immediately centrifuged at 99 g for 5 minutes at 4° C. 200 uL of the supernatant solution was then removed for scintillation counting. Samples were counted to 2% or 10 minutes, whichever occurs first. […] Also, wells containing radioactivity but no cytosol were processed with charcoal to estimate unremovable DPM of [^3H] […] 96-well plates were used because they have proven to bind the least amount of estradiol.
Counts per minute (CPM) of radioactivity were automatically converted to disintegrated per minute (DPM) by the Beckman LS 7500 Scintillation Counter using a set of quenched standards to generate a H# for each sample. To calculate the % of estradiol binding in the presence of 100 or 500 fold competitor the following formula was applied:
((DPM sample−DPM not removed by charcoal/(DPM estradiol−DPM not removed by charcoal))×100%=% of estradiol binding
For the generation of IC50 curves, % binding is plotted vs compound. […] Values are reported as IC50 values. […] For a description of these methods, see Hulme, E. C., ed. 1992. Receptor-Ligand Interactions: A Practical Approach. IRL Press, New York.(see especially chapter 8).
Compounds were tested for their ability to displace estradiol in a human ER-receptor preparation as described above.

Ishikawa uterine cells = assay: Ishikawa cell alkaline phosphatase test procedure; assay type: cell-based, human; conditions: for Alkaline phosphatase activity, percent of response related to 1 nM 17β-estradiol: 48 h
Experimental: Ishikawa Cell Alkaline Phosphatase Test Procedure
Cell Maintenance and Treatment
Ishikawa cells were maintained in DMEM/F12 (50%:50%) containing phenol red+10% fetal bovine serum and the medium was supplemented with 2 mM Glutamax, 1% Pen/Strap and 1 mM sodium pyruvate. Five days prior to the beginning of each evaluation (treatment of cells) the medium was changed to phenol red-free DMEM/F12+10% dextran coated charcoal stripped serum. On the day before treatment, cells were harvested using 0.5% trypsin/EDTA and plated at a density of 5×10^4 cells/well in 96-well tissue culture plates. […] Cells were treated for 48 h prior to assay. […] Sample population for at each dose was n=8.
Alkaline Phosphatase Test Procedure
At the end of 48 h the media was aspirated and cells were washed three times with phosphate buffered saline (PBS); 50 μL of lysis buffer (0.1 M Tris-HCl, pH 9.8, 0.2% Triton X-100) was added to each well. Plates were placed at −80° C. for a minimum of 15 minutes. Plates were thawed at 37° C. followed by the addition of 150 μL of 0.1 M Tris-HCl, pH 9.8, containing 4 mM para-nitrophenylphosphate (pNPP) to each well (final concentration, 3 mM pNPP).
Absorbance and slope calculations were made using the KineticCalc Application program (Bio-Tek Instruments, Inc., Winooski, Vt.). Results are expressed as the mean +/−S.D. of the rate of enzyme reaction (slope) averaged over the linear portion of the kinetic reaction curve (optical density readings every 5 minutes for 30 minutes absorbance reading).
The four compounds were used as reference standards:
A description of these methods is described by Holinka, C. F., Hata, H., Kuramoto, H. and Gurpide, E. (1986) Effects of steroid hormones and antisteroids on alkaline phosphatase activity in human endometrial cancer cells (Ishikawa Line). Cancer Research, 46:2771-2774, and by Littlefield, B. A., Gurpide, E., Markiewicz, L., McKinley, B. and Hochberg, R. B. (1990) A simple and sensitive microtiter plate estrogen bioassay based on stimulation alkaline phosphatase in Ishikawa cells; Estrogen action of D5 adrenal steroids. Endocrinology, 6:2757-2762.

[1] = 1 uM compound + 1 nM E2, antagonist mode

SMILES | Uterine wet weight (rat uterus; 1 ug Cpd) [mg] | Uterine wet weight (rat uterus; 100 ug Cpd) [mg] | IC50 (human estrogen receptor) [nM] | Alkaline phosphatase activity, percent of response related to 1 nM 17β-estradiol (Ishikawa uterine cells; 0.01 uM compound, agonist mode) [%] | Alkaline phosphatase activity, percent of response related to 1 nM 17β-estradiol (Ishikawa uterine cells; 0.1 uM compound, agonist mode) [%] | Alkaline phosphatase activity, percent of response related to 1 nM 17β-estradiol (Ishikawa uterine cells; [1]) [%] | Alkaline phosphatase activity, percent of response related to 1 nM 17β-estradiol (Ishikawa uterine cells; 1 uM compound, agonist mode) [%] | Uterine wet weight (rat uterus; 1 ug E2 + 100 ug Cpd) [mg] | Behaviour in the uterine cell line (agonist/antagonist) (Ishikawa uterine cells; in words, from Table 2) | Receptor IC50 (human estrogen receptor; displacement of [3H]17β-estradiol, CHO cell cytosol ER preparation) | Competition for the human estrogen receptor (human estrogen receptor; in words, compounds with 17β-acetate)
C[C@]12CC[C@@H]3c4ccc(O)cc4C(=O)[C@@H](Sc4ccc(O)cc4)[C@H]3[C@@H]1CC[C@@H]2O [Example 2, (7α,17β) 3,17-Dihydroxy-7-(4-hydroxyphenyl)thio-estra-1,3,5(10)-triene-6-one] | 39.4 | 83.1 | 2500 | 7 | 14 | 87 | 42 |  |  |  | 
C[C@]12CC[C@@H]3c4ccc(O)cc4[C@@H](O)[C@@H](Sc4ccc(O)cc4)[C@H]3[C@@H]1CC[C@@H]2O [Example 3, (6α,7α,17β) 7-(4-Hydroxyphenyl)thio-estra-1,3,5(10)-triene-3,6,17-triol] | 62.4 | 99.9 | 10 | 86 | 88 | 97 | 75 | 106.1 |  |  | 
C[C@]12CC[C@@H]3c4ccc(O)cc4C[C@@H](Sc4ccc(O)cc4)[C@H]3[C@@H]1CC[C@@H]2O [Example 4, (7α,17β) 7-(4-Hydroxyphenyl)thio-estra-1,3,5(10)-triene-3,17-diol] | 37.9 | 45.4 | 300 | 7 | 47 | 6 | 57 |  |  |  | 
C[C@]12CC[C@@H]3c4ccc(O)cc4C(=O)[C@@H](Sc4ccc(Br)cc4)[C@H]3[C@@H]1CC[C@@H]2O [Example 6, (7α,17β) 7-(4-Bromophenyl)thio-3,17-dihydroxy-estra-1,3,5(10)-trien-6-one] | 29.0 | 97.7 | 1500 | 31 | 100 | 109 | 104 |  | fully efficacious agonists |  | 
C[C@]12CC[C@@H]3c4ccc(O)cc4C[C@@H](Sc4ccc(Br)cc4)[C@H]3[C@@H]1CC[C@@H]2O [Example 8, (7α,17β) 7-(4-Bromophenyl)thio-estra-1,3,5(10)-triene-3,17-diol] | 35.8 | 64.7 | 800 | 29 | 59 | 95 | 92 |  |  |  | 
COc1ccc2c(c1)CC(Sc1ccc(OCCN3CCCCC3)cc1)C1C2CCC2(C)C(OC(C)=O)CCC12 (stereo not drawn) [Example 14, (7α,17β) 3-Methoxy-7-{4-[2-(piperdin-1-yl)]ethoxyphenyl}thio-estra-1,3,5(10)-triene-17-ol-17-acetate] |  |  |  | 2 | 3 | 105 | 39 |  |  | No Binding | competed less effectively
